Source: patent US10787450B2 (BRISTOL-MYERS SQUIBB COMPANY, priority 2016, dated 2020)
Like-named read-outs stand apart in the source and are kept apart here.

How the values were obtained:
[1] = tested on: spontaneously hypertensive rat, renal hypertensive rat and deoxycortisone acetate salt hypertensive rat models; conditions: cited from earlier work
[2] = tested on: congestive heart failure in Dahl salt-sensitive rats; conditions: rat, in vivo; cited from earlier work
[3] = tested on: neointimal formation; conditions: rats; cited from earlier work
[4] = tested on: rat stroke model; conditions: in vivo; cited from earlier work
[5] = tested on: IL-1 beta-induced coronary stenosis; conditions: long term treatment; cited from earlier work
[6] = molecular target: ROCK2 (Homo sapiens (Human), UniProt O75116); assay: ROCK2 kinase inhibition assay (FITC peptide substrate, LABCHIP 3000 Reader); format: biochemical; conditions: 5 μM ATP, 1.5 μM peptide substrate
Method in brief: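 IC50 derived by curve fitting of dose-response inhibition, read as separation of phosphorylated from unphosphorylated FITC peptide (1.5 μM) after EDTA stop. Buffer: HEPES pH 7.5, MgCl2, Brij-35, DTT; ATP 5 μM; final DMSO <2%; reaction initiated by Rho kinase addition.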

Sequence of ROCK2 (O75116 whole entry, species assumed): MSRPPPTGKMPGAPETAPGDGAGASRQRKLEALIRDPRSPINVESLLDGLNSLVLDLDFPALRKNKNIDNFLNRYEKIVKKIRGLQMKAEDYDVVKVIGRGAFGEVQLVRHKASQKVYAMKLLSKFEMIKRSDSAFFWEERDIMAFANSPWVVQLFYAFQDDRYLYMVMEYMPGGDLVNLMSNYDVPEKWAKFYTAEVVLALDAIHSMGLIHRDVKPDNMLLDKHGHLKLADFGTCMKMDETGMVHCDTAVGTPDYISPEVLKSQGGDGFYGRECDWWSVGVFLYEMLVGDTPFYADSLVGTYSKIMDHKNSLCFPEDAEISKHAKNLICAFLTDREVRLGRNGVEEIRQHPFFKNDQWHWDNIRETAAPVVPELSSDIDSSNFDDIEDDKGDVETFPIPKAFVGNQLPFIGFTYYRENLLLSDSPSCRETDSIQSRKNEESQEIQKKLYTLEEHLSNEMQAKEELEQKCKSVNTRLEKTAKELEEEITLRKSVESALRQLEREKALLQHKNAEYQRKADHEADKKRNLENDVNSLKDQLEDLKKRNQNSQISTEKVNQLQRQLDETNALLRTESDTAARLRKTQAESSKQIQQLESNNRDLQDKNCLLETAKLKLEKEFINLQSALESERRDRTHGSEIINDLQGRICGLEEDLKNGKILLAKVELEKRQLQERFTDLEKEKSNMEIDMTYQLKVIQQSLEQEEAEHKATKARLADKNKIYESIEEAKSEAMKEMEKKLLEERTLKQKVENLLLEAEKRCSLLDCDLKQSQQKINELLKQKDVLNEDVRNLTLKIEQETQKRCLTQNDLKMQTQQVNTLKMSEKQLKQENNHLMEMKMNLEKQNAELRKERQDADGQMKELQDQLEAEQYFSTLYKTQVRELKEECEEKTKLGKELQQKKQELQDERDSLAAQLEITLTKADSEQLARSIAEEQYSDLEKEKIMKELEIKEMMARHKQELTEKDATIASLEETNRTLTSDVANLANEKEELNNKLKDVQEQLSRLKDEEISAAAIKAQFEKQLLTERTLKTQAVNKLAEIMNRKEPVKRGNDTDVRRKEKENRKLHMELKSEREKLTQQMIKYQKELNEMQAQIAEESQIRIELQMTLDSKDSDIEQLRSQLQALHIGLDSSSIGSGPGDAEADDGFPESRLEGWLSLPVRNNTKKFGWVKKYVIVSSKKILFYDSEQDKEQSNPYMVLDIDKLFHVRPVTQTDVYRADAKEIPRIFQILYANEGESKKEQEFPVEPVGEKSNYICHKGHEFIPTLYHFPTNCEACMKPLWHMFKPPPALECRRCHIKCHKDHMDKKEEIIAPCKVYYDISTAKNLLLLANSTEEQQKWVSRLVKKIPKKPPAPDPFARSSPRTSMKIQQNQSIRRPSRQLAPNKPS

Compound: C[C@@H](N)[C@H]1CC[C@H](C(=O)Nc2ccncc2)CC1 [Example Y-27632, Y-27632]
- effect on blood pressure ([1]; control rats): only a minor effect on blood pressure
- effect on blood pressure ([1]; three rat models of hypertension): significantly decrease blood pressure
- ventricular hypertrophy, fibrosis and function [2]: improve ventricular hypertrophy, fibrosis and function
- neointimal formation [3]: inhibited neointimal formation

Compound: O=S(=O)(c1cccc2cnccc12)N1CCCNCC1 [fasudil]
- infarct size and neurologic deficit [4]: reduce both the infarct size and neurologic deficit
- coronary constrictive remodeling [5]: promote a regression of coronary constrictive remodeling
- coronary stenosis [5]: progressively reduce coronary stenosis

Compound: COCC(=O)N1CCC2(CC1)CN(c1ccc(-c3cn[nH]c3)c(OC)n1)C(=O)N2Cc1cccc(OC)c1 [Example 219, 3-(6-methoxy-5-(1H-pyrazol-4-yl)pyridin-2-yl)-8-(2-methoxyacetyl)-1-(3-methoxybenzyl)-1,3,8-triazaspiro[4.5]decan-2-one]
- IC50 [6]: < 3 nM

Compound: COc1cccc(CN2C(=O)N(c3ncc(-c4cn[nH]c4)c(OC)n3)CC23CCN(CCC(F)(F)F)CC3)c1 [Example 134, 3-(4-methoxy-5-(1H-pyrazol-4-yl)pyrimidin-2-yl)-1-(3-methoxybenzyl)-8-(3,3,3-trifluoropropyl)-1,3,8-triazaspiro[4.5]decan-2-one]
- IC50 [6]: 30 to 250 nM
